# Calls of active or inactive are those of the source. No cut-off for these calls is given here.
# Experiments:
# [1] = system: NCI-H460; assay: Anti-tumor activity against human NCI-H460 cells assessed as cell viability incubated for 48 hrs by CCK-8 assay; format: functional, cell-based; settings: NCI-H460, 48 h
# [2] = Antiproliferative activity against rat PA-III cells incubated for 24 hrs by MTT assay; format: functional, cell-based
# [3] = system: HT-29; assay: Anti-tumor activity against human HT-29 cells assessed as cell viability incubated for 48 hrs by CCK-8 assay; format: functional, cell-based
# [4] = system: MCF7; assay: Anti-tumor activity against human MCF7 cells assessed as cell viability incubated for 48 hrs by CCK-8 assay; format: functional, cell-based
# [5] = system: HeLa; assay: Anti-tumor activity against human HeLa cells assessed as cell viability incubated for 48 hrs by CCK-8 assay; format: functional, cell-based
# [6] = system: NCI-H460; assay: Inhibition of colony formation in human NCI-H460 cells assessed as reduction in colony formation rate upto 12.5 uM incubated for 14 days by crystal violet staining based analysis; format: functional, cell-based; settings: time 14.0 day
# [7] = system: NCI-H460; assay: Anti-migratory activity against human NCI-H460 cells assessed as inhibition of cell migration at 500 nM measured for 48 hrs by wound healing assay; format: functional, cell-based
# [8] = system: NCI-H460; assay: Inhibition of cell invasion in human NCI-H460 cells assessed as decrease in number of invading cells at 500 nM incubated for 48 hrs by transwell assay; format: functional, cell-based
# [9] = system: NCI-H460; assay: Inhibition of epithelial mesenchymal transition in human NCI-H460 cells assessed as decrease in N-cadherin protein expression by Western blotting analysis; format: functional, cell-based
# [10] = system: NCI-H460; assay: Inhibition of epithelial mesenchymal transition in human NCI-H460 cells assessed as increase in E-cadherin protein expression by Western blotting analysis; format: functional, cell-based
# [11] = system: NCI-H460; assay: Induction of apoptosis in human NCI-H460 cells assessed as apoptosis rate at 500 nM incubated for 24 hrs by annexin V-FITC/PI staining based flow cytometry analysis relative to control; format: functional
# [12] = system: NCI-H460; assay: Induction of apoptosis in human NCI-H460 cells assessed as increase in BAX level at 500 nM incubated for 24 hrs by Western blot analysis; format: functional, cell-based
# [13] = system: NCI-H460; assay: Induction of apoptosis in human NCI-H460 cells assessed as increase in caspase-3 level at 500 nM incubated for 24 hrs by Western blot analysis; format: functional, cell-based
# [14] = system: NCI-H460; assay: Induction of apoptosis in human NCI-H460 cells assessed as downregulation of Bcl2 expression at 500 nM incubated for 24 hrs by Western blot analysis; format: functional, cell-based
# [15] = system: NCI-H460; assay: Induction of DNA damage in human NCI-H460 cells assessed as increase in gammaH2AX positive cells by DAPI staining based confocal laser scanning microscopic analysis; format: functional, cell-based
# [16] = system: NCI-H460; assay: Induction of DNA damage in human NCI-H460 cells assessed as increase in gammaH2AX positive cells by immunofluorescence analysis; format: functional, cell-based
# [17] = system: NCI-H460; assay: Upregulation of gamma-H2AX expression in human NCI-H460 cells by Western blot analysis; format: functional, cell-based
# [18] = Hemolytic activity in BALB/c mouse Red blood cells assessed as effect on morphological structure at 10 to 100 uM incubated for 2 hrs; format: toxicity, cell-based; settings: erythrocyte, dose 10-100 µM
# [19] = Hemolytic activity in BALB/c mouse Red blood cells assessed as hemolysis at 10 to 100 uM incubated for 2 hrs; format: toxicity, cell-based, Erythrocyte; settings: dose 10-100 µM, read-out: Activity
Structure (SMILES),IC50 [1] [µM],further results
Fc1ccc(-c2ncc3ccccc3c2[Se]c2ccccc2)cc1,> 100,
COc1ccc(-c2ncc3ccccc3c2[Se]c2ccccc2)cc1,> 100,
Brc1ccc2c([Se]c3ccccc3)c(-c3ccccc3)ncc2c1,86.2,
Brc1ccc([Se]c2c(-c3ccccc3)ncc3ccccc23)cc1,> 100,
Brc1c2ccccc2c(-c2ncc3ccccc3c2[Se]c2ccccc2)c2ccccc12,> 100,
COc1ccc([Se]c2c(-c3ccccc3)ncc3cc(OC)ccc23)cc1,8.58,
Clc1ccc([Se]c2c(-c3ccccc3)ncc3ccccc23)cc1,82,
c1ccc([Se]c2c(-c3ccccc3)ncc3sccc23)cc1,65.6,
Fc1ccc2c([Se]c3ccccc3)c(-c3ccccc3)ncc2c1,> 100,
FC(F)(F)c1cccc([Se]c2c(-c3ccccc3)ncc3ccccc23)c1,47.2,
c1ccc([Se]c2c(C3CC3)ncc3ccccc23)cc1,> 100,
COc1ccccc1[Se]c1c(-c2ccccc2)ncc2ccccc12,64.2,
FC(F)(F)c1ccc([Se]c2c(-c3ccccc3)ncc3ccccc23)cc1,53.6,
Cc1ccc([Se]c2c(-c3ccccc3)ncc3ccccc23)cc1,52,
FC(F)(F)c1ccccc1[Se]c1c(-c2ccccc2)ncc2ccccc12,68,
c1ccc([Se]c2c(-c3ccccc3)ncc3ccccc23)cc1,61.6,
CCCCc1ncc2ccccc2c1[Se]c1ccc(OC)cc1,> 100,
COc1cc2cnc(-c3ccccc3)c([Se]c3ccccc3)c2cc1OC,42.3,
C[Se]c1c(-c2ccccc2)ncc2ccccc12,> 100,
c1ccc([Se]c2c(-c3ccc(-c4cc(-c5ccc(-c6ncc7ccccc7c6[Se]c6ccccc6)cc5)cc(-c5ccc(-c6ncc7ccccc7c6[Se]c6ccccc6)cc5)c4)cc3)ncc3ccccc23)cc1,> 100,
Fc1cccc([Se]c2c(-c3ccccc3)ncc3ccccc23)c1,> 100,
COc1ccc([Se]c2c(-c3ccc4ccccc4c3)ncc3ccccc23)cc1,> 100,
O=P1(N(CCCl)CCCl)NCCCO1 (stereo unspecified) [CYCLOPHOSPHAMIDE ANHYDROUS],114,

Structure (SMILES),IC50 [1] [µM],further results
c1ccc([Se]c2c(-c3ccsc3)ncc3ccccc23)cc1,> 100,
N#C[Se]Cc1cc(-c2ccccc2)n(-c2ccc(S(N)(=O)=O)cc2)n1,,IC50 [2]: 5 µM
COc1ccc([Se]c2c(-c3ccsc3)ncc3ccccc23)cc1,44.5,
COc1cccc([Se]c2c(-c3ccccc3)ncc3ccccc23)c1,56.5,
Fc1ccccc1[Se]c1c(-c2ccccc2)ncc2ccccc12,> 100,
COc1ccc([Se]c2c(-c3ccccc3)ncc3cccc(F)c23)cc1,53.2,
FC(F)(F)c1ccc2c([Se]c3ccccc3)c(-c3ccccc3)ncc2c1,51.9,
c1ccc([Se]c2c(-c3c4ccccc4c(-c4ncc5ccccc5c4[Se]c4ccccc4)c4ccccc34)ncc3ccccc23)cc1,> 100,
COc1ccc([Se]c2c(-c3ccccc3)ncc3cc(Cl)ccc23)cc1,93.3,
COc1ccc([Se]c2c(-c3ccccc3)ncc3cc4c(cc23)OCO4)cc1,> 100,
CN(C)c1ccc([Se]c2c(-c3ccccc3)ncc3ccccc23)cc1,> 100,
Cc1ccc(-c2ncc3ccccc3c2[Se]c2ccccc2)cc1,> 100,
Clc1ccc2c([Se]c3ccccc3)c(-c3ccccc3)ncc2c1,99.2,
COc1ccc([Se]c2cc(-c3ncc4ccccc4c3[Se]c3ccc(OC)cc3)cc([Se]c3ccc(OC)cc3)c2N)cc1,> 100,
CC(C)(C)c1ncc2ccccc2c1[Se]c1ccccc1,> 100,
N#Cc1ccc([Se]c2c(-c3ccccc3)ncc3ccccc23)cc1,> 100,
COc1ccc([Se]c2c(-c3ccccc3)ncc3cc(F)ccc23)cc1,39,
COc1ccc([Se]c2c(-c3ccc(Cl)cc3)ncc3ccccc23)cc1,77.3,
COc1ccc2c([Se]c3ccccc3)c(-c3ccccc3)ncc2c1,76.6,
COc1ccc([Se]c2c(-c3ccccc3)ncc3sccc23)cc1,33.6,
Clc1ccccc1[Se]c1c(-c2ccccc2)ncc2ccccc12,> 100,
Brc1ccc(-c2ncc3ccccc3c2[Se]c2ccccc2)cc1,> 100,
COc1ccc([Se]c2c(-c3ccccc3)ncc3cc(C(F)(F)F)ccc23)cc1,42.6,

Structure (SMILES),IC50 [1] [µM],further results
COc1ccc([Se]c2c(-c3ccccc3)ncc3ccc(OC)cc23)cc1,5.9,"Activity [3]: inactive; Activity [4]: inactive; Activity [5]: inactive; inhibition [6]: Active; Activity [7]: Active; inhibition [8]: Active; N-cadherin expression decrease (qualitative activity) [9]: Active; inhibition [10]: Active; Activity [11]: 31.5%; Activity [12]: Active; Activity [13]: Active; Activity [14]: Active; Activity [15]: Active; Activity [16]: Active; Activity [17]: Active; Activity [18]: Non-toxic; hemolysis at 2 h, 100 µM [19]: < 1%"
c1ccc([Se]c2c(-c3ccccc3)ncc3cc4c(cc23)OCO4)cc1,34.2,
c1ccc([Se]c2c(-c3ccc(-c4ncc5ccccc5c4[Se]c4ccccc4)cc3)ncc3ccccc23)cc1,> 100,
Cc1cccc([Se]c2c(-c3ccccc3)ncc3ccccc23)c1,38,
c1ccc([Se]c2c(-c3cc4ccccc4c4ccccc34)ncc3ccccc23)cc1,> 100,
Clc1cccc([Se]c2c(-c3ccccc3)ncc3ccccc23)c1,56.7,
N#Cc1cccc([Se]c2c(-c3ccccc3)ncc3ccccc23)c1,68,
COc1ccc([Se]c2c(-c3ccccc3)ncc3cc(C)ccc23)cc1,16.6,
COc1ccc([Se]c2c(-c3ccc(Br)cc3)ncc3ccccc23)cc1,> 100,
Cc1ccc2c([Se]c3ccccc3)c(-c3ccccc3)ncc2c1,> 100,
c1ccc([Se]c2c(-c3ccc(-c4ccccc4)cc3)ncc3ccccc23)cc1,> 100,
CCCCc1ncc2ccccc2c1[Se]c1ccccc1,> 100,
Fc1ccc([Se]c2c(-c3ccccc3)ncc3ccccc23)cc1,20.3,
COc1ccc([Se]c2c(-c3ccccc3)ncc3cc(Br)ccc23)cc1,94.8,
Cc1ccccc1[Se]c1c(-c2ccccc2)ncc2ccccc12,61.6,
Clc1ccc(-c2ncc3ccccc3c2[Se]c2ccccc2)cc1,> 100,
COc1ccc([Se]c2c(-c3ccccc3)ncc3ccccc23)cc1,6.39,"Activity [3]: inactive; Activity [4]: inactive; Activity [5]: inactive; inhibition [6]: Active; Activity [7]: Active; inhibition [8]: Active; N-cadherin expression decrease (qualitative activity) [9]: Active; inhibition [10]: Active; Activity [11]: 20.8%; Activity [12]: Active; Activity [13]: Active; Activity [14]: Active; Activity [15]: Active; Activity [16]: Active; Activity [17]: Active; Activity [18]: Non-toxic; hemolysis at 2 h, 100 µM [19]: < 1%"
N#Cc1ccccc1[Se]c1c(-c2ccccc2)ncc2ccccc12,> 100,
CC(C)(C)c1ccc(-c2ncc3ccccc3c2[Se]c2ccccc2)cc1,40.8,
c1ccc([Se]c2c(-c3ccc4ccccc4c3)ncc3ccccc23)cc1,54.8,
c1ccc([Se]c2c(-c3ccccc3)ncc3cccnc23)cc1,42.3,

# Reference: ChEMBL document CHEMBL6103645, “Modular Synthesis of Bioactive Selenoheterocycles for Efficient Cancer Therapy via Electrochemical Selenylation/Cyclization” (J Med Chem, 2025)
